# What was measured:
# Cathepsin K = molecular target: T1, Cathepsin K (Homo sapiens, UniProt P43235); assay: Enzyme Assay: Standard assay conditions for the determination of kinetic constants used a fluorogenic peptide substrate, typically H-D-Ala-Leu-Lys-AMC, and were determined in either 100 mM Mes/Tris, pH 7.0 containing 1 mM EDTA and 10 mM 2-mercaptoethanol or 100 mM Na phosphate, imM EDTA, 0.1% PEG4000 pH 6.5 or 100 mM Na acetate, pH 5.5 containing 5 mM EDTA and 20 mM cysteine, in each case optionally with […] as stabiliser. The enzyme concentration used was 5 nM. The stock substrate solution was prepared at 10 mM in DMSO. Screens were carried out at a fixed substrate concentration of 60 μM and detailed kinetic studies with doubling dilutions of substrate from 250 μM. The total DMSO concentration in the assay was kept below 3%. All assays were conducted at ambient temperature. Product fluorescence (excitation at 390 nm, emission at 460 nm) was monitored with a Labsystems Fluoroskan Ascent fluorescent plate reader.
# T1 sequence (P43235 whole entry): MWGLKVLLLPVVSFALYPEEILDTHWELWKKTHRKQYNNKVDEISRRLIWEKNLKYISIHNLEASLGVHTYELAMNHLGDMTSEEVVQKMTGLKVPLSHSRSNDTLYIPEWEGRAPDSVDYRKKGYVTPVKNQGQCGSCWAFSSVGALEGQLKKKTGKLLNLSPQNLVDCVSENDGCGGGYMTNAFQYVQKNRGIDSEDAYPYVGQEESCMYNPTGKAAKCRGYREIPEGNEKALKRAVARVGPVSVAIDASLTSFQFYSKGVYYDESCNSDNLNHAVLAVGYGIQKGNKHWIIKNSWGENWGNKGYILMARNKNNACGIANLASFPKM
# Cathepsin S = Cathepsin S (Homo sapiens, UniProt P25774); assay: Enzyme Assay: The assay uses baculovirus-expressed human cathepsin S and the boc-Val-Leu-Lys-AMC fluorescent substrate available from Bachem in a 384 well plate format, in which 7 test compounds can be tested in parallel with a positive control comprising a known cathepsin S inhibitor comparator. […] 2 μl of each 10 mM test compound is added to a separate well on row A, columns 1-10. Add 90 μl assay buffer containing 1 mM DTT and 2 nM cathepsin S to each well of rows B-H and 180 μl to row A.
# Sequence of Cathepsin S (P25774 whole entry): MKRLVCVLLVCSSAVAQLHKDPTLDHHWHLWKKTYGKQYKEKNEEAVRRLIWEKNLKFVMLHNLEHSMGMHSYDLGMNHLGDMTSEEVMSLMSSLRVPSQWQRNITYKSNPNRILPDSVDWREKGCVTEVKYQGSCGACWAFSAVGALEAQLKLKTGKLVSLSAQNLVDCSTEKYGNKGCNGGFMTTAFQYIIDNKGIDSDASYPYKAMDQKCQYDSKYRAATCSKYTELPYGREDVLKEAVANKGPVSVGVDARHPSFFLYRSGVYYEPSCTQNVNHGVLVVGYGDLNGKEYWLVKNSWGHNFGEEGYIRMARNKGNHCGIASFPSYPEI
structure (smiles),measurement,setting,value
C#C[C@@H]1CN(C(=O)[C@@H](NC(=O)c2ccc(-c3nc(N4CCN(C)CC4)sc3F)cc2)C2CCCC2)[C@@H]2C(=O)CO[C@H]12,Ki,Cathepsin K,0.6 nM
same,Ki,Cathepsin S,2900 nM

# Source: ChEMBL document CHEMBL3638596, “Protease inhibitors” (2014)
